Laboratory results reported in patent publication US8198307B2, “Imidazole derivatives having aryl piperidine substituent, method for preparation thereof and pharmaceutical compositions containing same” (Korea Research Institute of Chemical Technology, priority 2007, dated 2012).
pIC50: −log10 of the molar value.

Target: T1, MCH R1 (melanine-concentrating hormone receptor-1) (Homo sapiens, UniProt Q99705)
T1 construct: purchased Euroscreen, Gosselies, Belgium
Test: Inhibitory effects on MCH R1 binding (Eu-MCH time-resolved fluorescence binding assay)
Conditions: not given
Experimental: First, MCH R1 (melanine-concentrating hormone receptor-1; Euroscreen, Gosselies, Belgium), 1 μM Europium-labeled melanine-concentrating hormone (Eu-MCH, PerkinElmer, Turku, Finland) and 1 mM melanine-concentrating hormone (MCH, #070-47, Phoenix, Belmont Calif., USA) were kept at 4° C. for ready use. 1 μM Eu-MCH and 1 mM MCH were diluted with an experimental solution (25 mM HEPES pH 7.4, 5 mM MgCl2, 1 mM CaCl2 and 0.5% (w/w) BSA) to 8 nM (final reaction concentration: 2 nM) and 2 μM (final reaction concentration: 0.5 μM), respectively. The compounds prepared in the Examples (“Test compounds”) were dissolved in the experimental solution in concentration of 4 nM to 40 μM (final reaction concentration: 1 nM to 10 μM). MCH R1 (200 assays/vial) was homogeneously dispersed in the experimental solution.
Then, 100 μl/well of the following reaction mixture was added to the wells of a microplate (Multiwell 96 well filter plates PN5020, Pall Co., Ann Arbor, Mich., USA) equipped with a filter paper, with an 8-channel pipette (multi 8-channel, Eppendorf, Hamburg, Germany). Specifically, to the wells of a non-specific binding control group, 25 μl of Eu-MCH, 50 μl of MCH R1 and 25 μl of MCH were added. Further, 25 μl of the experimental solution supplemented with 10% (w/w) of DMSO, 25 μl of Eu-MCH and 50 μl of MCH R1 were added to the wells of a total binding control group, while 25 μl of the test compounds, 25 μl Eu-MCH and 50 μl of MCH R1 were added to the wells of an experimental group. Subsequently, the microplate was shaken gently for 15 seconds and kept at room temperature for 90 minutes to allow the reaction to take place. Then, the plate was washed with a microplate washer (EMBLA, Molecular Devices) by washing three times with 300 μl of a washing solution (25 mM HEPES pH 7.4, 5 mM MgCl2, 1 mM CaCl2) to remove the residual unreacted Eu-MCH. Moisture was removed from the bottom of the wells and 150 μl of dissociation solution (DELFIA Enhancement solution, PerkinElmer, Turku, Finland) was added to each well, followed by keeping the plate at room temperature for 2 to 4 hours. Subsequently, time-resolved fluorescence (TRF) values were measured with a multilabel counter (Victor2, PerkinElmer, Turku, Finland) (emission wave length: 615 nm, excitation wave length: 340 nm). The inhibition rate based on the time-resolved fluorescence data was calculated using the following Equation (I). Inhibition rate of time-resolved fluorescence (%)=[(Average TRF value of the total binding group−Time-resolved fluorescence value of the test compound)/(Average TRF value of the total binding group−Average TRF value of the non-specific binding group)]×100 (I)

T1 sequence (Q99705 whole entry, species assumed): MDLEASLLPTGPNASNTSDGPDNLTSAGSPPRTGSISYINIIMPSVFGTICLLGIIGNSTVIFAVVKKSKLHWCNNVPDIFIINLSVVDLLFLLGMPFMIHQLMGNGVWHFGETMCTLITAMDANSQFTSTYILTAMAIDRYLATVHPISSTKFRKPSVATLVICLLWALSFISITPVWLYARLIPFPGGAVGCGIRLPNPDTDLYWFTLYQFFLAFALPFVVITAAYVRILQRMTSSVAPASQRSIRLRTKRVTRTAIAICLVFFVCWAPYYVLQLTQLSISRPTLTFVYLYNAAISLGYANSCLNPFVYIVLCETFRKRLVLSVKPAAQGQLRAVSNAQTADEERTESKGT

Compound | pIC50
CC(=O)Nc1cccc(C2CCN(CCCn3c(-c4ccc(Cl)cc4)nc4ccc([N+](=O)[O-])cc43)CC2)c1 [Example 42, 2-(4-chlorophenyl)-1-{3-[4-(3-acetylaminophenyl)piperidin-1-yl]propyl}-6-nitro-1H-benzimidazole] | 6.95

Same assay, conditions: concentration inhibiting the binding of MCH (Eu-MCH, 2 nM) to MCH R1 by 50% in vitro; TRF readout; test range 1 nM to 10 μM; read-out: IC50

Compound | pIC50
CC(=O)Nc1cccc(C2CCN(CCCn3c(-c4ccccc4F)nc4ccc(Cl)cc43)CC2)c1 [Example 33, 2-(2-fluorophenyl)-1-{3-[4-(3-acetylaminophenyl)piperidin-1-yl]propyl}-6-chloro-1H-benzimidazole] | 6.83
CC(=O)Nc1cccc(C2CCN(CCCn3c(-c4cccc(F)c4)nc4ccc(Cl)cc43)CC2)c1 [Example 34, 2-(3-fluorophenyl)-1-{3-[4-(3-acetylaminophenyl)piperidin-1-yl]propyl}-6-chloro-1H-benzimidazole] | 8.10
CC(=O)Nc1cccc(C2CCN(CCCn3c(-c4cccc(Cl)c4)nc4ccc(Cl)cc43)CC2)c1 [Example 35, 2-(3-chlorophenyl)-1-{3-[4-(3-acetylaminophenyl)piperidin-1-yl]propyl}-6-chloro-1H-benzimidazole] | 8.15
CC(=O)Nc1cccc(C2CCN(CCCn3c(-c4cccc(Cl)c4)nc4cc(C)c(C)cc43)CC2)c1 [Example 38, 2-(3-chlorophenyl)-1-{3-[4-(3-acetylaminophenyl)piperidin-1-yl]propyl}-5,6-dimethyl-1H-benzimidazole] | 8.52
CC(=O)Nc1cccc(C2CCN(CCCn3c(-c4ccc(Cl)cc4)nc4c(C)c(C)ccc43)CC2)c1 [Example 39, 2-(4-chlorophenyl)-1-{3-[4-(3-acetylaminophenyl)piperidin-1-yl]propyl}-4,5-dimethyl-1H-benzimidazole] | 8.15
CC(=O)Nc1cccc(C2CCN(CCCn3c(-c4ccccc4Cl)nc4ccc([N+](=O)[O-])cc43)CC2)c1 [Example 40, 2-(2-chlorophenyl)-1-{3-[4-(3-acetylaminophenyl)piperidin-1-yl]propyl}-6-nitro-1H-benzimidazole] | 7.09
CC(=O)Nc1cccc(C2CCN(CCCn3c(-c4cccc(Cl)c4)nc4ccc([N+](=O)[O-])cc43)CC2)c1 [Example 41, 2-(3-chlorophenyl)-1-{3-[4-(3-acetylaminophenyl)piperidin-1-yl]propyl}-6-nitro-1H-benzimidazole] | 6.20
CC(=O)Nc1cccc(C2CCN(CCCn3c(-c4ccc(C(F)(F)F)cc4)nc4ccccc43)CC2)c1 [Example 45, 2-(4-trifluoromethylphenyl)-1-{3-[4-(3-acetylaminophenyl)piperidin-1-yl]propyl}-1H-benzimidazole] | 8.52
CC(=O)Nc1cccc(C2CCN(CCCn3c(-c4ccc(-c5ccccc5)cc4)nc4ccccc43)CC2)c1 [Example 46, 2-(4-biphenyl)-1-{3-[4-(3-acetylaminophenyl)piperidin-1-yl]propyl}-1H-benzimidazole] | 8.10
CC(=O)Nc1cccc(C2CCN(CCCn3c(-c4ccc(Oc5ccccc5)cc4)nc4ccccc43)CC2)c1 [Example 47, 2-(4-phenoxyphenyl)-1-{3-[4-(3-acetylaminophenyl)piperidin-1-yl]propyl}-1H-benzimidazole] | 7.38
CC(=O)Nc1cccc(C2CCN(CCCn3c(-c4ccc(Cl)cc4)nc4cc(C)cc(C)c43)CC2)c1 [Example 49, 2-(4-chlorophenyl)-1-{3-[4-(3-acetylaminophenyl)piperidin-1-yl]propyl}-5,7-dimethyl-1H-benzimidazole] | 6.71
CC(=O)Nc1cccc(C2CCN(CCCn3c(-c4ccc(F)c(F)c4)nc4ccccc43)CC2)c1 [Example 50, 2-(3,4-difluorophenyl)-1-{3-[4-(3-acetylaminophenyl)piperidin-1-yl]propyl}-1H-benzimidazole] | 8.40
CC(=O)Nc1cccc(C2CCN(CCCn3c(-c4ccc(C#N)cc4)nc4ccccc43)CC2)c1 [Example 51, 2-(4-cyanophenyl)-1-{3-[4-(3-acetylaminophenyl)piperidin-1-yl]propyl}-1H-benzimidazole] | 7.80
CC(=O)Nc1cccc(C2CCN(CCCn3c(-c4cccc(C#N)c4)nc4ccccc43)CC2)c1 [Example 52, 2-(3-cyanophenyl)-1-{3-[4-(3-acetylaminophenyl)piperidin-1-yl]propyl}-1H-benzimidazole] | 7.82
CC(=O)Nc1cccc(C2CCN(CCCn3c(-c4cccc([N+](=O)[O-])c4)nc4ccccc43)CC2)c1 [Example 55, 2-(3-nitrophenyl)-1-{3-[4-(3-acetylaminophenyl)piperidin-1-yl]propyl}-1H-benzimidazole] | 8.10
CC(=O)Nc1cccc(C2CCN(CCCn3c(-c4ccc([N+](=O)[O-])cc4Cl)nc4ccccc43)CC2)c1 [Example 57, 2-(2-chloro-4-nitrophenyl)-1-{3-[4-(3-acetylaminophenyl)piperidin-1-yl]propyl}-1H-benzimidazole] | 7.43
COc1ccc(-c2nc3ccccc3n2CCCN2CCC(c3cccc(NC(C)=O)c3)CC2)c(OC)c1 [Example 58, 2-(2,4-dimethoxyphenyl)-1-{3-[4-(3-acetylaminophenyl)piperidin-1-yl]propyl}-1H-benzimidazole] | 7.66
CC(=O)Nc1cccc(C2CCN(CCCn3c(-c4ccc(Cl)cc4F)nc4cc(C)c(C)cc43)CC2)c1 [Example 59, 2-(4-chloro-2-fluorophenyl)-1-{3-[4-(3-acetylaminophenyl)piperidin-1-yl]propyl}-5,6-dimethyl-1H-benzimidazole] | 6.62

Next, values leading:

pIC50 | Compound
7.11 | CC(=O)Nc1cccc(C2CCN(CCCn3c(-c4cc(F)c(F)c(F)c4F)nc4ccccc43)CC2)c1 [Example 44, 2-(2,3,4,5-tetrafluorophenyl)-1-{3-[4-(3-acetylaminophenyl)piperidin-1-yl]propyl}-1H-benzimidazole]
7.18 | COc1ccc(Cl)cc1-c1nc2ccccc2n1CCCN1CCC(c2cccc(NC(C)=O)c2)CC1 [Example 56, 2-(5-chloro-2-methoxyphenyl)-1-{3-[4-(3-acetylaminophenyl)piperidin-1-yl]propyl}-1H-benzimidazole]
7.25 | CC(=O)Nc1cccc(C2CCN(CCCn3c(-c4ccc(F)cc4)nc4ccccc43)CC2)c1 [Example 48, 2-(4-fluorophenyl)-1-{3-[4-(3-acetylaminophenyl)piperidin-1-yl]propyl}-1H-benzimidazole]
7.41 | CC(=O)Nc1cccc(C2CCN(CCCn3c(-c4ccccc4Cl)nc4cc(C)c(C)cc43)CC2)c1 [Example 37, 2-(2-chlorophenyl)-1-{3-[4-(3-acetylaminophenyl)piperidin-1-yl]propyl}-5,6-dimethyl-1H-benzimidazole]
7.77 | CC(=O)Nc1cccc(C2CCN(CCCn3c(-c4ccc(Cl)cc4)nc4ccc(Br)cc43)CC2)c1 [Example 36, 2-(4-chlorophenyl)-1-{3-[4-(3-acetylaminophenyl)piperidin-1-yl]propyl}-6-bromo-1H-benzimidazole]
7.96 | CC(=O)Nc1cccc(C2CCN(CCCn3c(-c4ccc(Cl)cc4)nc4ccc(F)cc43)CC2)c1 [Example 31, 2-(4-chlorophenyl)-1-{3-[4-(3-acetylaminophenyl)piperidin-1-yl]propyl}-6-fluoro-1H-benzimidazole]
8.00 | CC(=O)Nc1cccc(C2CCN(CCCn3c(-c4ccccc4)nc4ccc([N+](=O)[O-])cc43)CC2)c1 [Example 32, 2-phenyl-1-{3-[4-(3-acetylaminophenyl)piperidin-1-yl]propyl}-6-nitro-1H-benzimidazole]
8.40 | CC(=O)Nc1cccc(C2CCN(CCCn3c(-c4ccc(F)cc4Cl)nc4ccccc43)CC2)c1 [Example 54, 2-(2-chloro-4-fluorophenyl)-1-{3-[4-(3-acetylaminophenyl)piperidin-1-yl]propyl}-1H-benzimidazole]
8.52 | CC(=O)Nc1cccc(C2CCN(CCCn3c(-c4ccccc4)nc4ccc(Br)cc43)CC2)c1 [Example 43, 2-phenyl-1-{3-[4-(3-acetylaminophenyl)piperidin-1-yl]propyl}-6-bromo-1H-benzimidazole]
9.00 | CC(=O)Nc1cccc(C2CCN(CCCn3c(-c4ccc(Cl)cc4F)nc4ccccc43)CC2)c1 [Example 53, 2-(4-chloro-2-fluorophenyl)-1-{3-[4-(3-acetylaminophenyl)piperidin-1-yl]propyl}-1H-benzimidazole]
